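Each compound was tested at five concentrations against cells in 96-well plates for 48 hours. Abbreviation: GI50, concentration required for 50% inhibition of growth.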 Active and inactive are the calls of the source. Rule as the data show it: active = GI50 up to about 1.1 µM and inactive = higher.
Experiments:
Assay in all cases: DTP human tumour cell line panel, 48 h
UACC-62 = system: UACC-62
OVCAR-8 = system: OVCAR-8
OVCAR-3 = system: OVCAR-3
MOLT-4 = system: MOLT-4
LOX IMVI = system: LOX IMVI
SK-OV-3 = system: SK-OV-3
K562 = system: K562
ACHN = system: ACHN
IGROV-1 = system: IGROV-1
SR = system: SR
M14 = system: M14
A498 = system: A498
CAKI-1 = system: CAKI-1
RPMI-8226 = system: RPMI-8226
HCC 2998 = system: HCC 2998
NCI-H460 = system: NCI-H460
HOP-18 = system: HOP-18
KM12 = system: KM12
HCT-15 = system: HCT-15
KM-20L2 = system: KM-20L2
U-251 = system: U-251
DMS-114 = system: DMS-114
UO-31 = system: UO-31
SF-539 = system: SF-539
LXFL 529 = system: LXFL 529
A549 = system: A549
RXF 393 = system: RXF 393
HOP-62 = system: HOP-62
HL-60 = system: HL-60
NCI-H522 = system: NCI-H522
RXF 631 = system: RXF 631
HCT-116 = system: HCT-116
OVCAR-4 = system: OVCAR-4
COLO 205 = system: COLO 205
NCI-H226 = system: NCI-H226
SK-MEL-2 = system: SK-MEL-2
TK-10 = system: TK-10
HT-29 = system: HT-29
SF-268 = system: SF-268
DLD-1 = system: DLD-1
HOP-92 = system: HOP-92
SNB-78 = system: SNB-78
786-0 = system: 786-0
SNB-19 = system: SNB-19
SK-MEL-5 = system: SK-MEL-5
SW-620 = system: SW-620
OVCAR-5 = system: OVCAR-5
SN12C = system: SN12C
UACC-257 = system: UACC-257
EKVX = system: EKVX
Malme-3M = system: Malme-3M
SNB-75 = system: SNB-75
NCI-H23 = system: NCI-H23
SK-MEL-28 = system: SK-MEL-28
M19-MEL = system: M19-MEL
DMS-273 = system: DMS-273
CCRF-CEM = system: CCRF-CEM
SF-295 = system: SF-295

With `CC(C)NC(=O)O/N=C1\CCC2[C@@H]3CC=C4C[C@@H](OC(=O)NC(C)C)CC[C@]4(C)C3CC[C@]12C` (stereo partly drawn) the GI50 (UACC-62) was 1300 nM (inactive), the GI50 (OVCAR-8) was 1750 nM (inactive) and the GI50 (OVCAR-3) was 1080 nM (active). The GI50 (MOLT-4) was 1420 nM (inactive), the GI50 (LOX IMVI) was 1030 nM (active) and the GI50 (SK-OV-3) was 4310 nM (inactive). For the same compound, the GI50 (K562) was 953 nM (active), the GI50 (ACHN) was 971 nM (active) and the GI50 (IGROV-1) was 1870 nM (inactive). The GI50 (SR) was 1200 nM (inactive), the GI50 (M14) was 627 nM (active) and the GI50 (A498) was 6890 nM (inactive). The GI50 (CAKI-1) was 1440 nM (inactive), the GI50 (RPMI-8226) was 695 nM (active) and the GI50 (HCC 2998) was 2140 nM (inactive). For the same compound, the GI50 (NCI-H460) was 1380 nM (inactive), the GI50 (HOP-18) was 1840 nM (inactive) and the GI50 (KM12) was 1680 nM (inactive). The GI50 (HCT-15) was 1430 nM, the GI50 (KM-20L2) was 2590 nM (inactive) and the GI50 (U-251) was 1380 nM (inactive). The GI50 (DMS-114) was 664 nM (active), the GI50 (UO-31) was 1010 nM (active) and the GI50 (SF-539) was 2400 nM (inactive). For the same compound, the GI50 (LXFL 529) was 912 nM (active), the GI50 (A549) was 1470 nM (inactive) and the GI50 (RXF 393) was 1530 nM (inactive). For the same compound, the GI50 (HOP-62) was 6530 nM (inactive), the GI50 (HL-60) was 632 nM (active) and the GI50 (NCI-H522) was 1530 nM (inactive). The GI50 (RXF 631) was 1320 nM (inactive), the GI50 (HCT-116) was 1430 nM (inactive) and the GI50 (OVCAR-4) was 1380 nM (inactive). For the same compound, the GI50 (COLO 205) was 359 nM (active), the GI50 (NCI-H226) was 18100 nM (inactive) and the GI50 (SK-MEL-2) was 1460 nM (inactive). For the same compound, the GI50 (TK-10) was 1660 nM (inactive), the GI50 (HT-29) was 2340 nM (inactive) and the GI50 (SF-268) was 1490 nM (inactive). For the same compound, the GI50 (DLD-1) was 2530 nM (inactive), the GI50 (HOP-92) was 2080 nM (inactive) and the GI50 (SNB-78) was 2290 nM (inactive). The GI50 (786-0) was 1610 nM (inactive), the GI50 (SNB-19) was 2020 nM (inactive) and the GI50 (SK-MEL-5) was 425 nM (active). For the same compound, the GI50 (SW-620) was 1790 nM (inactive), the GI50 (OVCAR-5) was 748 nM (active) and the GI50 (SN12C) was 1570 nM (inactive). For the same compound, the GI50 (UACC-257) was 685 nM (active), the GI50 (EKVX) was 1280 nM (inactive) and the GI50 (Malme-3M) was 310 nM (active). The GI50 (SNB-75) was 1870 nM (inactive), the GI50 (NCI-H23) was 1180 nM (inactive) and the GI50 (SK-MEL-28) was 1590 nM (inactive). For the same compound, the GI50 (M19-MEL) was 1290 nM (inactive), the GI50 (DMS-273) was 1310 nM (inactive) and the GI50 (CCRF-CEM) was 1240 nM (inactive). The GI50 (SF-295) was 1540 nM (inactive).

— ChEMBL document CHEMBL1201862, “PubChem BioAssay data set” (2004)
